Test results published in PMC9747717, “A novel small molecule inhibitor of human Drp1” (Scientific Reports, 2022).

Experiments:
Drp1 KO MEFs = assay: Mitochondrial morphology analysis in Drp1 KO MEF; format: cell-based, mouse; conditions: Drp1 KO MEFs, 5, 10 or 50 µM
Experimental: (§1) Human foreskin fibroblasts and Drp1 wildtype and KO MEF (kindly provided by Professor Hiromi Sesaki, Johns Hopkins University, USA)[28],[29] were transduced with pAS2.EYFP.puro lentiviruses (RNAiCore, Academia Sinica, Taiwan) carrying the mitochondrial-targeted EGFP sequence as described in Kalkhoran et al.[30]. Cells were then treated with DRP1i27 (5, 10 or 50 µM) or 0.1% DMSO vehicle control for 24 h.
(§2) Mitochondrial morphology in HL-1 cells were visualised by immunostaining of mitochondrial Hsp60 antibody (Abcam, MA, USA). Images were acquired using Olympus BX60 fluorescence microscope at 600 × magnification and analysed using Fiji imaging software (ImageJ v1.53c). Cells were categorised into predominantly (> 50%) having fused or fragmented mitochondria. At least 100 cells were analysed for each treatment group.

[1] = Dynamic light scattering (DLS) compound aggregation threshold; format: physicochemical
Experimental: Identification of compound aggregation threshold was performed using DLS Zetasizer Nano ZS (Malvern Pananalytical, Worcestershire, UK). 100 µL of samples were measured in low-volume plastic micro cuvettes (BrandTech Scientific, CT, USA) at 25 °C using default size measurement settings. […] Mdivi-1 and DRP1i27 were serially diluted three-fold from 500 µM until the volume distribution of particle size was similar to that of the DMSO control. To specifically determine aggregation threshold, further dilution was carried out between concentrations where aggregation was first observed.

[2] = system: human iPSC-derived cardiomyocytes; assay: Doxorubicin-induced cardiomyocyte injury, LDH release; format: cell-based; conditions: DRP1i27 50 µM in combination with doxorubicin 5 µM, 2 days
Experimental: Cardiomyocytes were derived from human induced pluripotent stem cells (iPSCs, CERA007c6 cell line) as previously described with modifications[26],[27]. Briefly, human iPSCs were seeded onto Matrigel (Corning) coated plates at a density of 1.25 × 10^5 cells/cm^2 in TeSR-E8 medium supplemented with 10 μM Y−27632 (Abcam). After 48 h (cells ~ 90% confluent) (day 0), medium was replaced with RPMI-1640 basal medium (Thermo Fisher Scientific) containing B-27 without insulin supplement (Thermo Fisher Scientific), growth factor reduced Matrigel (1:60 dilution) and 10 μM CHIR99021 (Cayman Chemical). At day 1, medium was replaced with RPMI 1640 basal medium containing B-27 without insulin supplement. […]
Enriched cardiomyocytes were replated onto Matrigel-coated 48-well plates at a cell density of 5 × 10^4 cells/cm^2 for 2 days. […] LDH levels in the conditioned media were assessed using a colorimetric CyQUANT LDH Cytotoxicity Assay Kit (Thermo Fisher Scientific) according to manufacturer’s protocol. […] Following the incubation at room temperature for 30 min in the dark, 50 μL of Stop Solution was added and absorbance was measured at 490 nm and 680 nm on a microplate spectrophotometer (Bio-Rad). All readings were then corrected for the background signal from the culture media and expressed as fold change.

HL-1 cells [3] = assay: Mitochondrial morphology in HL-1 cells under simulated ischaemia-reperfusion injury; format: cell-based, Murine; conditions: 50 µM, DMSO 63.14 ± 8.12%
Experimental: (§3) HL-1 cells were plated in 24-well plate pre-coated with 5 μg/mL human fibronectin (Merck Millipore, MA, USA) in 0.02% porcine gelatin solution (Sigma-Aldrich, MA, USA). Cells were maintained in Claycomb media (Sigma-Aldrich) supplemented with 0.1 mM (±)-norepinephrine (+)-bitartrate salt (Sigma-Aldrich), 2 mM GlutaMAX (Thermo Fisher Scientific, MA, USA), 100 μg/mL penicillin/streptomycin (Thermo Fisher Scientific) and 10% non-heat inactivated foetal bovine serum (FBS) (Bovogen Biologicals, Victoria, Australia). The simulated ischaemia–reperfusion injury was performed as described in Rosdah et al.[25]. […] Cell death was determined by staining with 1 μg/mL propidium iodide and 3 μg/mL Hoechst 33258. The number of dead cells (propidium iodide positive) was counted and expressed as a percentage over total number of cells (Hoechst 33258 positive). At least 100 cells were counted per group for each independent experiment.
as §2, with “Cells were categorised into predominantly (> 50%) having fused or fragmented mitochondria.” left out

Drp1 wild type MEFs = assay: Mitochondrial morphology analysis in Drp1 wild type MEF; format: cell-based, mouse; conditions: statistical significance at 10 and 50 µM
Experimental: as §1, §2

HL-1 cells [4] = assay: Simulated ischaemia-reperfusion injury, cell death; format: cell-based, Murine; conditions: 50 µM during simulated ischaemia-reperfusion; DMSO 29.55 ± 5.45%
Experimental: as §3, with “al.[25]. To simulate ischaemia, cells were cultured in ischaemic buffer (25 mM NaHEPES, 1 mM KH2PO4, 10 mM NaHCO3, 74 mM NaCl, 1.2 mM MgCl2.6H2O, 16 mM KCl, 1.2 mM CaCl2, 10 mM 2-deoxy-d-glucose) and hypoxia (< 0.1% O2) was induced in an airtight GENBox anaerobic chamber containing a Genbox Anaer generator sachet (BioMérieux, Marcy l’Etoile, France) at 37 °C.” for “al.[25].”

## Cc1nc[nH]c1CN1C[C@@H]2CC[C@H](C1)N(Cc1ccc(-c3cc[nH]n3)o1)C2 [DRP1i27]
Drp1 KO MEFs
  cellular networks of mitochondria: no significant effect
[1]; PBS, 2% DMSO
  aggregation threshold: 130 µM
[1]; PBS, 5% DMSO
  aggregation threshold: 350 µM
[1]; with 0.05% Tween-20, DMSO content not specified
  aggregation threshold: at least 500 µM
[2]
  LDH release: 3.13 ± 0.16 fold change
HL-1 cells [3]
  percentage of cells with fragmented mitochondria: 36.62 ± 7.37%
Drp1 wild type MEFs
  cellular networks of mitochondria: dose-dependent response
HL-1 cells [4]
  cell death: 15.17 ± 3.67%
